One test has as its target T1, Nucleolin (Homo sapiens, UniProt P19338).
T1 construct: gene NCL; Recombinant human Nucleolin
Put plainly: SPR (Biacore […], immobilized Nucleolin on CM5 chip); supported by CETSA, DARTS and affinity pull-down. The class given is binding. A general note: SPR reads the build-up and loss of mass on a sensor chip optically.

Another test deals with T2, HSP70 (Homo sapiens, UniProt P0DMV8).
T2 construct: gene HSPA1A
Put plainly: DARTS in Jurkat lysate and living cells at […] (MS and western blot); pull-down with immobilized oridonin. The class given is cell-based. (In western blotting, separated proteins are transferred to a membrane and probed.)

Each structure is given as a SMILES string.

T2 sequence (P0DMV8 2-641): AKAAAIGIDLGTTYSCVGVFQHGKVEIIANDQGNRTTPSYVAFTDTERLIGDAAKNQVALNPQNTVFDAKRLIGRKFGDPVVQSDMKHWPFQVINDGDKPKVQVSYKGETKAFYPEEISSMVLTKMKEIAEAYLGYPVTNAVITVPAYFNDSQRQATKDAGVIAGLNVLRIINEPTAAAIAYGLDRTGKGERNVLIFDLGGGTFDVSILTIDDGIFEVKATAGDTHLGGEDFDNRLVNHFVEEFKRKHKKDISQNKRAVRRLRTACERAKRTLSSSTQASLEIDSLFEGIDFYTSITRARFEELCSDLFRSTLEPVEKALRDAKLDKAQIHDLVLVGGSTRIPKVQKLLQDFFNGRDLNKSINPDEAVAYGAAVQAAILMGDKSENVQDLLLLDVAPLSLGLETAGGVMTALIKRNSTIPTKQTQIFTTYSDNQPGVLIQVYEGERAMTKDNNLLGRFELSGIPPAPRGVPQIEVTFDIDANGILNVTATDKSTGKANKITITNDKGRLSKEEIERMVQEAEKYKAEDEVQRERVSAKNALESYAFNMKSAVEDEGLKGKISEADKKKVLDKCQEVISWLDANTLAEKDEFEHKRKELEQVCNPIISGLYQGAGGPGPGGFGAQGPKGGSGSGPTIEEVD
T1 sequence (P19338 2-710): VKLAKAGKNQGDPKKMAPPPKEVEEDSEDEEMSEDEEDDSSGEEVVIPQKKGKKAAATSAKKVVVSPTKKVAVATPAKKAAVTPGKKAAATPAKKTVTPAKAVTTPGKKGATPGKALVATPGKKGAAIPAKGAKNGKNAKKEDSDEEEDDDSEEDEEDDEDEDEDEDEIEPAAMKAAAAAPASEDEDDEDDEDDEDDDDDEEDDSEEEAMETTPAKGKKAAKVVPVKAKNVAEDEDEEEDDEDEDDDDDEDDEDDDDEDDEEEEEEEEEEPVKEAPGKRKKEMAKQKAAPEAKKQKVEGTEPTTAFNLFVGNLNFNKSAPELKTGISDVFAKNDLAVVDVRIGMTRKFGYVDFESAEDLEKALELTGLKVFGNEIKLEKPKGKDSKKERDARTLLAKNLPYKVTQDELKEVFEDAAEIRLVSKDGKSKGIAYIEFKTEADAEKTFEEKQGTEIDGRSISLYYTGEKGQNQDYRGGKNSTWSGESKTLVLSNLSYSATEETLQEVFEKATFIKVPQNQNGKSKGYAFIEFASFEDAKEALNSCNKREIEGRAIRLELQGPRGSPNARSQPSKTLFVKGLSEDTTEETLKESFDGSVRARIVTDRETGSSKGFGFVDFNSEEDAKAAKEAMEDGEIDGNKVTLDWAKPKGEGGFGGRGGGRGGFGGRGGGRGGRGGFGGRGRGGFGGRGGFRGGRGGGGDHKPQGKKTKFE

As to `C=C1C(=O)[C@]23[C@H](O)[C@H]1CC[C@H]2[C@@]12CO[C@]3(O)[C@@H](O)[C@@H]1C(C)(C)CC[C@@H]2O` [oridonin], on Nucleolin, the dissociation constant (Kd) (usually the concentration at which binding is half-saturated) was determined as 3.8 ± 1.2 nM. For the same compound, on HSP70, the “DARTS in Jurkat lysate and living cells at 5 μM (MS and western blot); pull-down” value was “only three proteins emerged as putative oridonin targets: HSP70, HSP90, and Nucleolin”.

These data come from publication PMC6233161, “The anti-tumor diterpene oridonin is a direct inhibitor of Nucleolin in cancer cells” (Scientific Reports, 2018).
